The values that follow come from patent publication US11926640B2, “Prodrugs of glutamine analogs” (THE JOHNS HOPKINS UNIVERSITY, priority 2015, dated 2024).

“Also recorded” adds a separate entry of the source. Structures can show the parent of a compound that is named as a salt.

Data set [1] in a line: in vitro metabolic stability in mouse plasma. The note with it: for PLASMA STABILITY Mouse: prodrug remaining within the 60 min incubation time; for stability in mouse plasma (in words): 30 min and 60 min.
The nature of data set [2]: in vitro metabolic stability in human plasma. The note with it: for PLASMA STABILITY Human: prodrug remaining within the 60 min incubation time; for stability in human plasma (in words): 30 min and 60 min.
Data set [3] in a line: in vitro metabolic stability in monkey plasma. The note with it: for PLASMA STABILITY Monkey: prodrug remaining within the 60 min incubation time; for stability in monkey plasma (in words): 30 min and 60 min.
Data set [4] is described as follows: chemical stability (cyclization to diazo-imine, acidic pH). The class given is physicochemical. From the text: Chemistry. Scheme 9 outlines the synthesis and characterization of the ester based prodrugs 20 and 3 of DON and their subsequent cyclization to novel diazo-imines 9a-b. The pyroglutamate esters 6a-b (D'Andrea, et al., 2008) were FMOC-protected to afford compounds 18 and 1. Formation of the diazoketones 19 and 2 was accomplished using TMS diazomethane in good yield. Rapid deprotection with piperidine afforded the ester based prodrugs 20 and 3. Unexpectedly […] cyclization was observed even under mild conditions (e.g. stirring in chloroform at room temperature) affording the novel diazo-imines 9a and 9b. It is believed that this is the first example of this functional group being described in the chemical literature.

Data set [5] can be described thus: 5-day i.v. toxicity comparison of DON and 38 in pigs. Type of data set: in vivo. The note with it: at equivalent PBMC exposures.
Data set [6] is described as follows: in vitro liver microsomal stability, pig. The note with it: pig microsomes.
A short description of data set [7]: in vitro liver microsomal stability, human. The note with it: human microsomes. Background: Liver microsomes are a subcellular fraction often used to study metabolism.
The nature of data set [8]: in vitro metabolic stability in pig plasma. The note with it: 30 min and 60 min.
Data set [9] can be described thus: in vitro metabolic stability in dog plasma. The note with it: 30 min and 60 min. Type of data set: in vitro ADME. How it is done:
Percentage remaining was calculated in the following manner.

A short description of data set [10]: DON release in mouse plasma after oral administration of prodrugs. The class given is in vivo. The note with it: mice, p.o., 30 minutes and 5 hours after dosing, compared to DON. How it is done: Procedure for Pharmacokinetic analysis for DON release from its prodrugs: DON is extracted from samples (50 μL) with 250 μL methanol containing Glutamate-d5 (10 μM ISTD) by vortexing in low retention tubes. Samples are centrifuged at 16,000×g for 5 minutes to precipitate proteins. Supernatants (200 μL) are moved to new tube and dried at 45° C. under vacuum (approximately 1 hour). To each tube, 50 μL of 0.2 M sodium bicarbonate buffer (pH 9.0) and 100 μL dabsyl chloride stock is added. After vortexing, samples are incubated at 60° C. for 15 minutes to derivatize.

A short description of data set [11]: plasma and CSF pharmacokinetics of DON in swine after i.v. infusion. Type of data set: in vivo, Göttingen×Yucutan miniature swine. The note with it: 60 min post-administration. How it is done:
Compound: Compound 47 was dissolved in a sterile saline containing 5% ethanol and 5% Tween 80 on the date of administration.
Swine: Swine studies were conducted under a protocol approved by the Johns Hopkins Animal Care and Use Committee. Adult, female Göttingen×Yucutan miniature swine (Massachusetts General Hospital, MA) were housed in Johns Hopkins University facilities accredited by the Association for Assessment and Accreditation of Laboratory Animal Care International in compliance with the Animal Welfare Act, Animal Welfare Regulations, and the Public Health Service Policy on the Humane Care and Use of Laboratory Animals. Animals were maintained on a 14-h light and 10-h dark schedule, provided ad libitum water and a commercial miniswine diet (Teklad, Madison, WI) with environmental enrichment (fruit/vegetables) twice daily.

The subject of the next data set is MC38 colon cancer. Kind of data set: MC38 tumor model. The class given is in vivo, mice. The note with it: single agent.

`CCOC(=O)[C@H](CCC(=O)C=[N+]=[N-])NC(=O)OC(C)OC(=O)C(C)(C)C` (mixture of isomers) [Compound 32, Ethyl 6-diazo-2-(((1-(pivaloyloxy)ethoxy)carbonyl)amino)-5-oxohexanoate]: the “PLASMA STABILITY Mouse” value in data set [1] is given as 0%. In addition, the “PLASMA STABILITY Human” value in data set [2] was determined as 88%. Also, the “PLASMA STABILITY Monkey” value in data set [3] is listed as 75%.
`CC(C)OC(=O)[C@@H]1CCC(C=[N+]=[N-])=N1` (stereo in doubt) [Compound 9b, Isopropyl 5-(diazomethyl)-3,4-dihydro-2H-pyrrole-2-carboxylate]: the “chemical stability (in words)” value in data set [4] is recorded as “chemically stable even at acidic pH”.
In the case of `CC(C)OC(=O)[C@H](CCC(=O)C=[N+]=[N-])NC(=O)[C@@H](N)Cc1c[nH]c2ccccc12` (stereo in doubt) [Compound 38, Isopropyl 2-(2-amino-3-(1H-indol-3-yl)propanamido)-6-diazo-5-oxohexanoate], in data set [5], the “DON delivered to GI tissues (in words)” value is “less DON to GI tissues”. Besides, the “liver microsomal stability (in words)” value in [6] and in data set [7] was “moderate-high stability” in each case. Besides, the “PLASMA STABILITY Mouse” value in data set [1] came out at 0%. In addition, in [2], the “PLASMA STABILITY Human” value is reported as 30%. In addition, in data set [3], the “PLASMA STABILITY Monkey” value is 10%.
In the case of `CC(C)OC(=O)C(N)CCC(=O)C=[N+]=[N-]` (centres unmarked) [Compound 3, Isopropyl 2-amino-6-diazo-5-oxohexanoate], in data set [4], the “chemical stability (in words)” value is “chemical instability; also recorded: unstable”.
Take `CC(C)OC(=O)[C@H](CCC(=O)C=[N+]=[N-])NP(=O)(Oc1ccccc1)Oc1ccccc1` [Compound 4, Isopropyl 6-diazo-2-((diphenoxyphosphoryl)amino)-5-oxohexanoate]: the “stability in pig plasma (in words)” value in [8] was “stable”. Also, the “stability in mouse plasma (in words)” value in data set [1] was “unstable”. Besides, in data set [2], the “stability in human plasma (in words)” value is on record as “stable”. Moreover, the “stability in monkey plasma (in words)” value in data set [3] is listed as “stable”.
For the compound `CC(C)OC(=O)C(CCC(=O)C=[N+]=[N-])NP(=O)(NC(CCC(=O)C=[N+]=[N-])C(=O)OC(C)C)Oc1ccccc1` (centres unmarked) [Compound 7, 1-methylethyl 2,6-bis[4-(1λ^5-diazynylidene)-3-oxobutyl]-9-methyl-7-oxo-4-phenoxy-8-oxa-3,5-diaza-4-phosphadecan-1-oate 4-oxide], in [8], the “stability in pig plasma (in words)” value was “stable”. Also, the “stability in mouse plasma (in words)” value in data set [1] is “unstable”. Further, in [2], the “stability in human plasma (in words)” value is “stable”. For the same compound, in data set [3], the “stability in monkey plasma (in words)” value was “stable”.
Take `CC(C)C[C@H](N)C(=O)N[C@@H](CCC(=O)C=[N+]=[N-])C(=O)OC(C)C` [Compound 9, Isopropyl 2-(2-amino-4-methylpentanamido)-6-diazo-5-oxohexanoate]: the “stability in dog plasma (in words)” value in data set [9] is “unstable”. Also, the “liver microsomal stability (in words)” value in data set [6] is given as “moderate-high stability”. In addition, the “stability in pig plasma (in words)” value in data set [8] is recorded as “unstable”. Further, the “liver microsomal stability (in words)” value in data set [7] is recorded as “moderate-high stability”. In addition, in [1], the “stability in mouse plasma (in words)” value is “unstable” and the “PLASMA STABILITY Mouse” value came to 0%. In addition, in data set [2], the “stability in human plasma (in words)” value is given as “unstable” and the “PLASMA STABILITY Human” value was found to be 1%. For the same compound, in data set [3], the “stability in monkey plasma (in words)” value was “unstable” and the “PLASMA STABILITY Monkey” value is listed as 1%.
For `CCOC(=O)[C@@H]1CCC(C=[N+]=[N-])=N1` [Compound 9a, Ethyl 5-(diazomethyl)-3,4-dihydro-2H-pyrrole-2-carboxylate], the “chemical stability (in words)” value in [4] is “chemically stable even at acidic pH”.
Regarding `Cc1oc(=O)oc1COC(=O)N[C@@H](CCC(=O)C=[N+]=[N-])C(=O)OC(C)C` [Compound 13, 1-Methylethyl 6-(1λ^5-diazynylidene)-N-{[(5-methyl-2-oxo-1,3-dioxol-4-yl)methoxy]carbonyl}-5-oxo-L-norleucinate], in data set [1], the “PLASMA STABILITY Mouse” value was determined as 0%. In data set [2], the “PLASMA STABILITY Human” value is 0%. Further, the “PLASMA STABILITY Monkey” value in data set [3] came to 0%.
For `CCOC(=O)[C@@H](N)CCC(=O)C=[N+]=[N-]` [Compound 20, Ethyl 2-amino-6-diazo-5-oxohexanoate], in data set [4], the “chemical stability (in words)” value is reported as “chemical instability; also recorded: unstable”.
On to `C[C@H](N)C(=O)N[C@@H](CCC(=O)C=[N+]=[N-])C(=O)O` [Compound 23, 2-(2-Aminopropanamido)-6-diazo-5-oxohexanoic acid], for which the “DON release / exposure in mouse plasma upon oral administration (in words)” value in [10] is “little DON release”.
The same measure, in the same setting: under `CC(C)C[C@H](N)C(=O)N[C@@H](CCC(=O)C=[N+]=[N-])C(=O)O` [Compound 26, 2-(2-Amino-4-methylpentanamido)-6-diazo-5-oxohexanoic acid triethylammonium salt] stands “some release”; under `CC(OC(=O)N[C@@H](CCC(=O)C=[N+]=[N-])C(=O)O)OC(=O)C(C)C` (some centres unmarked) [Compound 29, 6-Diazo-2-(((1-(isobutyryloxy)ethoxy)carbonyl)amino)-5-oxohexanoic acid triethylammonium salt], “little DON release”.
On the same count and under the same terms, under `CC(OC(=O)N[C@@H](CCC(=O)C=[N+]=[N-])C(=O)O)OC(=O)C(C)(C)C` (some centres unmarked) [Compound 30, 6-Diazo-2-(((1-(pivaloyloxy)ethoxy)carbonyl)amino)-5-oxohexanoic acid triethylammonium salt] stands “little DON release”.
Regarding `CCOC(=O)[C@H](CCC(=O)C=[N+]=[N-])NC(=O)[C@@H](N)Cc1c[nH]c2ccccc12` [Compound 34, Ethyl 2-(2-amino-3-(1H-indol-3-yl)propanamido)-6-diazo-5-oxohexanoate], the “PLASMA STABILITY Mouse” value in data set [1] is on record as 0%. Moreover, the “PLASMA STABILITY Human” value in data set [2] worked out at 12%. Besides, the “PLASMA STABILITY Monkey” value in [3] was determined as 4%.
For `CCOC(=O)[C@H](CCC(=O)C=[N+]=[N-])NC(=O)OCc1oc(=O)oc1C` [Compound 36, Ethyl 6-diazo-2-((((5-methyl-2-oxo-1,3-dioxol-4-yl)methoxy)carbonyl)amino)-5-oxohexanoate] the same measures were 0%, 0% and 0%.
For `CC(C)OC(=O)[C@H](CCC(=O)C=[N+]=[N-])NC(=O)OCOC(=O)C(C)(C)C` [Compound 42, Isopropyl 6-diazo-5-oxo-2-((((pivaloyloxy)methoxy)carbonyl)amino) hexanoate] the same measures were 0%, 9% and 0%.
Turning to `CC(C)OC(=O)[C@H](CCC(=O)C=[N+]=[N-])NC(=O)OC(OC(=O)C(C)(C)C)c1ccccc1` (some centres unmarked) [Compound 47, Isopropyl 6-diazo-5-oxo-2-(((phenyl(pivaloyloxy)methoxy)carbonyl)amino) hexanoate], in data set [11], the “CSF delivery of DON (in words)” value was “substantially higher amounts of DON to the CSF; also recorded: enhanced CSF delivery of DON” and the “CSF:plasma ratio of DON (in words)” value is recorded as “increased CSF-to-plasma ratios; also recorded: enhanced CSF:plasma ratio”.
In the case of `CC(=O)N[C@@H](Cc1c[nH]c2ccccc12)C(=O)N[C@@H](CCC(=O)C=[N+]=[N-])C(=O)OC(C)C` [Compound 60, Isopropyl 2-(2-acetamido-3-(1H-indol-3-yl)propanamido)-6-diazo-5-oxohexanoate], in the data set with MC38 colon cancer, the “antitumor efficacy in MC38 tumor model (in words)” value is listed as “promoted tumor regression”. For the same compound, the “liver microsomal stability (in words)” value in data set [6] and in data set [7] was “moderate-high stability” each time.
As for `C=CCOC(=O)N[C@@H](CCC(=O)C=[N+]=[N-])C(=O)O` [LTP 073], the “DON release / exposure in mouse plasma upon oral administration (in words)” value in data set [10] is on record as “below the limit of quantitation”.
